According to patent publication US20110081428A1, “Use of thioflavin-like compounds to increase life span and/or health span” (priority 2009, published 2011):

Experiments:
wildtype (N2) C. elegans [1] = experiment: Lifespan assay, wildtype worms; format: in vivo
Protocol: Lifespan assays were performed as described previously. (McColl, G. et al. Pharmacogenetic analysis of lithium-induced delayed aging in Caenorhabditis elegans. J Biol Chem 283, 350-357 (2008). Briefly, the nematode growth media (NGM) plates were prepared under sterile conditions. 100 μL of concentrated stocks of each of the compounds used in this study were added onto a previously prepared NGM small plate (3 mL volume) immediately spread over the surface of the plate. The final concentrations quoted in the text assume an even distribution of compound throughout the 3 ml plate. The plates were then placed in a laminar flow hood at room temperature for 30 min and then 60 μL of a concentrated suspension of E. coli OP50 was spotted to form a circular lawn on the center of each plate. […] The first day of adulthood is Day 3 in survival curves. There was between-experiment variation in the magnitude of the lifespan extension observed with ThT which appeared to correlate with different suppliers and batches. ThT concentration should be optimized depending on batch and purity and stability of the compound. […] The optimal range for lifespan extension was between 25 and 75 μM.
Animals were scored as alive, dead or lost every other day. […] Animals that died from causes other than ageing, such as sticking to the plate walls, internal hatching of eggs (“bagging”) or gonadal extrusion were censored as were lost worms. Animals were transferred to fresh plates every 3-6 days. All lifespan experiments were performed at 20° C. unless otherwise stated. Survival curves were plotted and statistical analyses (log-rank test) were performed using the Prism 4 software (Graphpad™ Software, Inc., San Diego, Calif., USA).

wildtype (N2) C. elegans [2] = experiment: Demographic analysis of age-specific mortality (Gompertz); format: in vivo, Caenorhabditis elegans; details: 50 μM ThT, p<0.001
Protocol: Data are presented as bends/min and represent the average of three independent experiments. *p<0.0001. e) Dose-response Kaplan-Meier survival curves of synchronously ageing hermaphrodite N2 populations exposed to 0 (control) to […], f) HBX and g) HBT at 20° C. (−) Control, (▪) 1 nM, ([…]) 10 μM, (▴) 100 μM, (▾) […]. Graphs are representative of three independent experiments.
Estimates of initial mortality rate and rate of increase with age and model fitting were made using WinModest. Gompertz mortality curves, ln(ux)=ln(a)+bx, where ux defines the age-specific hazard, were fitted with log-likelihood ratios used to examined the effects of constraining the intercept (a) or gradient (b) variables.

DA465 [eat-2(ad465)II] = experiment: Lifespan assay, eat-2 mutant; format: in vivo, Caenorhabditis elegans; details: 50 μM ThT
Protocol: Lifespan assays were performed as described previously. (McColl, G. et al. Pharmacogenetic analysis of lithium-induced delayed aging in Caenorhabditis elegans. J Biol Chem 283, 350-357 (2008). Briefly, the nematode growth media (NGM) plates were prepared under sterile conditions. 100 μL of concentrated stocks of each of the compounds used in this study were added onto a previously prepared NGM small plate (3 mL volume) immediately spread over the surface of the plate. The final concentrations quoted in the text assume an even distribution of compound throughout the 3 ml plate. The plates were then placed in a laminar flow hood at room temperature for 30 min and then 60 μL of a concentrated suspension of E. coli OP50 was spotted to form a circular lawn on the center of each plate. Thirty late L4 larvae growing at 20° C. were transferred to fresh NGM plates with FUdR (75 μM) in presence or absence of the specified compounds and incubated at 20° C. The first day of adulthood is Day 3 in survival curves. There was between-experiment variation in the magnitude of the lifespan extension observed with ThT which appeared to correlate with different suppliers and batches. ThT concentration should be optimized depending on batch and purity and stability of the compound. […]
Animals were scored as alive, dead or lost every other day. […]

[3] = test system: CL4176 (Aβ3-42 expressed in muscle); experiment: Worm paralysis assay, Aβ model; format: in vivo, Caenorhabditis elegans
Protocol: Scoring for paralysis was initiated 2 and 8 days after temperature upshift for CL4176 and AM140, respectively. […] For sensitivity to EtOH or levamisole resistance, CW152 gas-1 (fc21) X and ZZ26 unc-63(x26)I worms were picked into 0.4 M EtOH or 50 μM levamisole, respectively, equilibrated for 5 min, and scored for paralysis as described above. Treated and untreated worms were compared with an unpaired t-test (implemented in Prism 4, Graphpad™ Software, Inc., San Diego, Calif., USA).

hsp-6 RNA = experiment: Real time quantitative PCR, hsp-6; format: in vivo, Caenorhabditis elegans; details: 50 μM ThT, 3 and 6 days of treatment
Protocol: (§1) Twelve single adults from control or 50 μM ThT populations were picked after 3, 6 and 12 days of treatment into 5 μl of distilled water and flash frozen until extraction. Individual worms were extracted using the RNeasy Micro Kit, TissueLyser and QIAcube (Qiagen). Using the manufacturer's standard Animal Tissue protocol, each sample was homogenized in buffer RLT/Bme (Qiagen) on the TissueLyser (6 min total at 20 Hz). Samples, reagents and columns were then loaded into the QIAcube robot, and processed using the “RNeasy Micro—Animal tissues and cells—DNase digest” program. Each sample was then eluted in 14 μl of Nuclease-free water. cDNA templates for the Real Time PCR reactions were made using a combination of Message Sensor RT kit (Ambion's) and TaqMan PreAmp Master Mix (Applied Biosystems). The entire worm sample was added to the RT reaction and reversed transcribed at 50° C. for 20 min, using Message Sensor's “Two Step RT-PCR Protocol” (sample RT's were randomized). Then 2.5 μl of the cDNA sample was pre-amplified with a “4×Multiplex Primer Mix” for 14 cycles using TaqMan PreAmp master mix and protocol (ABI). Two modifications were made to ABI's protocol: 1. the reaction volume was reduced to 10 μl and 2. after pre-amplification, each cDNA sample was diluted 1:5 with 1XTE Buffer (Promega). cDNA samples were stored at −20° C. until needed. […]

unc-52 RNA = experiment: Real time quantitative PCR, unc-52; format: in vivo, Caenorhabditis elegans; details: 50 μM ThT, 12 days of treatment
Protocol: as §1

[4] = absence of FUdR, 50 μM, 20° C., 4 independent experiments
[5] = sterile N2 worms, 50 or 100 μM throughout adult life

Cc1ccc2c(c1)sc(-c1ccc(N(C)C)cc1)[n+]2C.[Cl-] [ThT, 4-(3,6-dimethyl-1,3-benzothiazol-3-ium-2-yl)-N,N-dimethylaniline chloride]
effect on lifespan at higher doses (wildtype (N2) C. elegans [1]; 500 μM): appears toxic and significantly shortens lifespan | Average increase in median lifespan (wildtype (N2) C. elegans [1]; [4]): 40% | increase in median lifespan, range over experiments (wildtype (N2) C. elegans [1]; [4]): 30-70% | increase in maximal lifespan (wildtype (N2) C. elegans [1]; [5]): 43-78% | increase in median lifespan (wildtype (N2) C. elegans [1]; [5]): 60% | age-specific mortality (wildtype (N2) C. elegans [2]): reduced age-specific mortality at all ages | lifespan of eat-2 mutant (genetic DR model) (DA465 [eat-2(ad465)II]): increased the lifespan | paralysis when treated after aggregation induction ([3]; CL4176, 50 μM ThT added 18 h after induction of aggregate formation): rescued the Aβ3-42 aggregation-induced paralysis | proportion of paralyzed worms ([3]; CL4176, 25° C., 50 μM ThT, 100 μM curcumin): significantly decrease the proportion of paralyzed worms | hsp-6 RNA levels (hsp-6 RNA): up-regulated | unc-52 RNA levels (unc-52 RNA): decreases the levels of unc-52
